Experiments:
Type in all cases: cell-based
[1] = system: E. coli DH5α; experiment: Antibacterial activity: MIC and growth curve against E. coli DH5α in 96-well plate; conditions: minimal inhibitory concentration against E. coli DH5α; 96-well plate, 5×10^5 CFU/mL, 37° C., judged after 8 h
How it was run: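 Log-phase DH5α (OD600 about 0.5, 37° C, 185 rpm in LB) was pelleted, resuspended in fresh LB and seeded at 5×10^5 CFU/mL with recombinant protein at 50, 25 and 12.5 μg/mL (two-fold series), in triplicate. Plates were shaken at 175 rpm, 37° C, and OD600 was read every 30 min. MIC was the lowest concentration with no growth.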

[2] = system: E. coli BL21; experiment: MIC against Gram-negative bacteria: E. coli BL21
How it was run: (§1)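 Inocula prepared by growing LB cultures at 37° C to 0.5 McFarland, centrifuging at 4000×g, and resuspending in fresh medium. Final density 5×10^5 CFU/mL per well with two-fold dilutions of purified EGF domain protein; shaking incubation at 37° C.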

[3] = system: Pseudomonas aeruginosa; experiment: MIC against Gram-negative bacteria: Pseudomonas aeruginosa
How it was run: as §1

[4] = system: Klebsiella pneumonia; experiment: MIC against Gram-negative bacteria: Klebsiella pneumonia
How it was run: as §1

[5] = system: Enterobacter cloacae; experiment: MIC against Gram-negative bacteria: Enterobacter cloacae
How it was run: as §1

[6] = system: Aeromonas hydrophila; experiment: MIC against Gram-negative bacteria: Aeromonas hydrophila
How it was run: as §1

[7] = system: Citrobacter diversus; experiment: MIC against Gram-negative bacteria: Citrobacter diversus
How it was run: as §1

[8] = system: Moraxella catarrhalis; experiment: MIC against Gram-negative bacteria: Moraxella catarrhalis
How it was run: as §1

[9] = system: Proteus mirabilis; experiment: MIC against Gram-negative bacteria: Proteus mirabilis
How it was run: as §1

[10] = system: Proteus vulgaris; experiment: MIC against Gram-negative bacteria: Proteus vulgaris
How it was run: as §1

[11] = system: Serratia marcescens; experiment: MIC against Gram-negative bacteria: Serratia marcescens
How it was run: as §1

[12] = 10 h cultivation at 37° C., 5×10^5 CFU/mL, two-fold serial dilution
[13] = 96-well plate, 5×10^5 CFU/mL, 37° C., 10 h

PRT1180 (DIDYCEPNPCQNGAQCYNRASDYFCKCPEDYEGKNCS; listed as Homo sapiens)
MIC [1]: 50 µg/mL
MIC E. coli BL21 [2, 12]: 12.5 µg/mL
MIC P. aeruginosa [3, 12]: 50 µg/mL
MIC K. pneumonia [4, 12]: 25 µg/mL
MIC E. cloacae [5, 12]: 12.5 µg/mL
MIC A. hydrophila [6, 12]: 50 µg/mL
MIC C. diversus [7, 12]: 25 µg/mL
MIC M. catarrhalis [8, 12]: 12.5 µg/mL
MIC P. mirabilis [9, 12]: 25 µg/mL
MIC P. vulgaris [10, 12]: 50 µg/mL
MIC S. marcescens [11, 12]: 25 µg/mL

PRT697 (DVDECAQEPPPCGPGRCDNTAGSFHCACPAGFRSRGPGAPCQ; listed as Homo sapiens)
MIC [1]: 25 µg/mL
MIC E. coli BL21 [2, 13]: 25 µg/mL
MIC P. aeruginosa [3, 13]: 50 µg/mL
MIC K. pneumonia [4, 13]: 12.5 µg/mL
MIC E. cloacae [5, 13]: 50 µg/mL
MIC A. hydrophila [6, 13]: 25 µg/mL
MIC C. diversus [7, 13]: 12.5 µg/mL
MIC M. catarrhalis [8, 13]: 50 µg/mL
MIC P. mirabilis [9, 13]: 12.5 µg/mL
MIC P. vulgaris [10, 13]: 25 µg/mL
MIC S. marcescens [11, 13]: 25 µg/mL

PRT463 (DVNECLQLPKACAYQCHNLQGSYRCLCPPGQTLLRDGKACT; listed as Homo sapiens)
MIC [1]: 50 µg/mL
MIC against E. coli BL21 [2, 13]: 12.5 µg/mL
MIC against P. aeruginosa [3, 13]: 50 µg/mL
MIC against K. pneumonia [4, 13]: 12.5 µg/mL
MIC against E. cloacae [5, 13]: 50 µg/mL
MIC against A. hydrophila [6, 13]: 12.5 µg/mL
MIC against C. diversus [7, 13]: 50 µg/mL
MIC against M. catarrhalis [8, 13]: 12.5 µg/mL
MIC against P. mirabilis [9, 13]: 12.5 µg/mL
MIC against P. vulgaris [10, 13]: 12.5 µg/mL
MIC against S. marcescens [11, 13]: 50 µg/mL

PRT914 (DARTCGSLRCLNGGTCISGPRSPTCLCLGPFTGPECQ; listed as Homo sapiens)
MIC [1]: 12.5 µg/mL
MIC ([2]; E. coli BL21, 10 h cultivation at 37° C.): 25 µg/mL
MIC ([3]; P. aeruginosa, 10 h cultivation at 37° C.): 12.5 µg/mL
MIC ([4]; K. pneumonia, 10 h cultivation at 37° C.): 12.5 µg/mL
MIC ([5]; E. cloacae, 10 h cultivation at 37° C.): 25 µg/mL
MIC ([6]; A. hydrophila, 10 h cultivation at 37° C.): 12.5 µg/mL
MIC ([7]; C. diversus, 10 h cultivation at 37° C.): 12.5 µg/mL
MIC ([8]; M. catarrhalis, 10 h cultivation at 37° C.): 12.5 µg/mL
MIC ([9]; P. mirabilis, 10 h cultivation at 37° C.): 12.5 µg/mL
MIC ([10]; P. vulgaris, 10 h cultivation at 37° C.): 12.5 µg/mL
MIC ([11]; S. marcescens, 10 h cultivation at 37° C.): 12.5 µg/mL

PRT507 (CICYGHARACPLDPATNKSRCECEHNTCGDSCDQCCPGFHQKPWRAGTFLTKTECEA; listed as Homo sapiens)
MIC [1]: 12.5 µg/mL
MIC against E. coli BL21 [2, 13]: 50 µg/mL
MIC against P. aeruginosa [3, 13]: 12.5 µg/mL
MIC against K. pneumonia [4, 13]: 50 µg/mL
MIC against E. cloacae [5, 13]: 12.5 µg/mL
MIC against A. hydrophila [6, 13]: 50 µg/mL
MIC against C. diversus [7, 13]: 12.5 µg/mL
MIC against M. catarrhalis [8, 13]: 50 µg/mL
MIC against P. mirabilis [9, 13]: 12.5 µg/mL
MIC against P. vulgaris [10, 13]: 50 µg/mL
MIC against S. marcescens [11, 13]: 25 µg/mL

PRT75 (DDNICLREPCENYMRCVSVLRFDSSAPFIASSSVLFRPIHPVGGLRCRCPPGFTGDYCE; listed as Homo sapiens)
MIC [1]: 50 µg/mL
MIC (μg/mL) E. coli BL21 ([2]; E. coli BL21, 96-well plate, 5×10^5 CFU/mL, 37° C., 10 h): 25 µg/mL
MIC (μg/mL) P. aeruginosa ([3]; Pseudomonas aeruginosa, 96-well plate, 5×10^5 CFU/mL, 37° C., 10 h): 12.5 µg/mL
MIC (μg/mL) K. pneumonia ([4]; Klebsiella pneumonia, 96-well plate, 5×10^5 CFU/mL, 37° C., 10 h): 25 µg/mL
MIC (μg/mL) E. cloacae ([5]; Enterobacter cloacae, 96-well plate, 5×10^5 CFU/mL, 37° C., 10 h): 50 µg/mL
MIC (μg/mL) A. hydrophila ([6]; Aeromonas hydrophila, 96-well plate, 5×10^5 CFU/mL, 37° C., 10 h): 12.5 µg/mL
MIC (μg/mL) C. diversus ([7]; Citrobacter diversus, 96-well plate, 5×10^5 CFU/mL, 37° C., 10 h): 12.5 µg/mL
MIC (μg/mL) M. catarrhalis ([8]; Moraxella catarrhalis, 96-well plate, 5×10^5 CFU/mL, 37° C., 10 h): 12.5 µg/mL
MIC (μg/mL) P. mirabilis ([9]; Proteus mirabilis, 96-well plate, 5×10^5 CFU/mL, 37° C., 10 h): 12.5 µg/mL
MIC (μg/mL) P. vulgaris ([10]; Proteus vulgaris, 96-well plate, 5×10^5 CFU/mL, 37° C., 10 h): 12.5 µg/mL
MIC (μg/mL) S. marcescens ([11]; Serratia marcescens, 96-well plate, 5×10^5 CFU/mL, 37° C., 10 h): 12.5 µg/mL

PRT576 (CTCNLLGTNPQQCPSPDQCHCDPSSGQCPCLPNVQGPSCDRCAPNFWNLTSGHGCQP; listed as Homo sapiens)
MIC [1]: 12.5 µg/mL
MIC against E. coli BL21 [2, 13]: 12.5 µg/mL
MIC against P. aeruginosa [3, 13]: 12.5 µg/mL
MIC against K. pneumonia [4, 13]: 12.5 µg/mL
MIC against E. cloacae [5, 13]: 12.5 µg/mL
MIC against A. hydrophila [6, 13]: 12.5 µg/mL
MIC against C. diversus [7, 13]: 12.5 µg/mL
MIC against M. catarrhalis [8, 13]: 50 µg/mL
MIC against P. mirabilis [9, 13]: 12.5 µg/mL
MIC against P. vulgaris [10, 13]: 50 µg/mL
MIC against S. marcescens [11, 13]: 25 µg/mL

From patent publication US9833497B2, “Human originated EGF domain proteins and use of the same” (CHENGDU SOURCEBIO LIMITED-LIABILITY COMPANY, priority 2013, dated 2017)
